In patent publication US20210260101A1, “POTENTIATED ANTIBIOTIC COMPOSITIONS AND METHODS OF USE FOR TREATING BACTERIAL INFECTIONS AND BIOFILMS” (priority 2018, published 2021):
In brackets after ≈: the same amount, converted by molar mass. Read-outs that look alike come from different tables or passages of the source.

Tests used:
[1] = tested on: MRSA clinical isolate OU11; assay: Clinical laboratory susceptibility (MicroScan), MRSA isolate 11; assay type: cell-based, S. aureus; settings: MicroScan PC33 gram positive panel
[2] = tested on: MRSA clinical isolate OU6; assay: Clinical laboratory susceptibility (MicroScan), MRSA isolate 6; assay type: cell-based, S. aureus; settings: MicroScan PC33 gram positive panel
[3] = tested on: clinical isolates OU15, OU19, and OU22; assay: Checkerboard assay, isolates OU15, OU19 and OU22 reported together; assay type: cell-based, Pseudomonas aeruginosa; settings: for MIC: Pseudomonas aeruginosa; for interaction with BPEI600: isolates OU15, OU19, OU22 (data not shown)
Method: (§1) Cells were grown at 35° C. with shaking. The OD600 (optical density at 600 nm) was monitored and recorded for each sample over 24 hr. Each checkerboard trial was done in triplicate using sterile Greiner CellStar™ flat bottom polystyrene plates, catalog #655180. Each growth curve was done in duplicate.

MRSA USA 300 ATCC 1717 = assay: Checkerboard MIC assay against MRSA USA300 (Example 1); assay type: cell-based, Staphylococcus aureus; settings: MRSA USA300; for MIC: Staphylococcus aureus, agent alone, read-out: MIC of antibiotic only
MRSA OU6 biofilms = assay: MBEC assay (MICCP and MBEC), MRSA OU6; assay type: cell-based, Staphylococcus aureus
Method: (§2) Bacterial culture was inoculated in an MBEC pronged-inoculator and incubated for 24 hr to allow biofilm formation. […] The change in optical density at 600 nm (Δ OD600) was measured. Minimum inhibitory concentration (MIC) of each drug is determined as the lowest concentration that inhibited cell growth (ΔOD600<0.05). Fractional inhibitory concentration index (FICI) was calculated as: […]
(§3) Synergistic effects are determined using EUCAST guidelines: synergy (FICI≤0.5), additivity (0.5<FICI<1), and indifference (FICI>1). The treated pronged-inoculator was then washed and transferred to a recovery plate with 200 μL MHB/well to sonicate and recover any remaining biofilm bacteria. The recovery plate was then incubated overnight before measuring ΔOD600 to determine MBECs and FICIs of the drugs tested on the biofilms.
(§4) MBEC assays were utilized on MRSA OU6 and MRSA OU11 and a lab strain MRSA ATCC 43300. The MRSA bacteria were used to inoculate a 96-well inoculation plate, where MRSA biofilms were grown on prongs protruding from the plate lid, known as the MBEC inoculator lid and based on the Calgary biofilm device. […] The final step was moving the treated inoculation lid to a third plate (the recovery plate) containing growth-media only and using sonication to dislodge the biofilm and recover cells remaining in the biofilm. In this manner, the synergy of BPEI and ampicillin against MRSA biofilms was evaluated. Standard CLSI (Clinical & Laboratory Standards Institute) guidelines describe a standard MIC assay using 96-well plates inoculated with a standard cell density, usually ˜10^6 CFU/mL. However, the MIC data reported here is non-standard because, rather than inoculation via micropipette transfer from an overnight culture, inoculation of the challenge plate occurs from the biofilm-coated inoculation lid where treatment challenge disrupts the protective biofilm EPS matrix. […] The MBEC is determined from cell growth in the recovery plate and reflects the ability of BPEI600, ampicillin, or its combinations to kill the biofilm remaining attached to the prongs of the inoculation lid. […]

MRSA 43300 biofilms = assay: MBEC assay (MICCP and MBEC), MRSA 43300; assay type: cell-based, Staphylococcus aureus
Method: as §2, §3, §4

MRSA OU11 biofilms = assay: MBEC assay (MICCP and MBEC), MRSA OU11; assay type: cell-based, Staphylococcus aureus
Method: as §2, §3, §4

PA OU15 = assay: Checkerboard assay, PA OU15; assay type: cell-based, Pseudomonas aeruginosa; settings: Pseudomonas aeruginosa, PA OU15
Method: as §1

PA OU22 = assay: Checkerboard assay, PA OU22; assay type: cell-based, Pseudomonas aeruginosa; settings: Pseudomonas aeruginosa, PA OU22
Method: as §1

PA OU19 = assay: Checkerboard assay, PA OU19; assay type: cell-based, Pseudomonas aeruginosa; settings: Pseudomonas aeruginosa, PA OU19
Method: as §1

[4] = tested on: S. epidermidis ATCC 12228 (MSSE 12228); assay: MIC/potentiation against MSSE 12228; assay type: cell-based, Staphylococcus epidermidis; settings: for MIC of antibiotic only: agent alone
[5] = tested on: S. epidermidis ATCC 35984 (MRSE 35984); assay: MIC/potentiation against MRSE 35984 (Example 1); assay type: cell-based, Staphylococcus epidermidis; settings: for MIC of antibiotic only: agent alone
[6] = read-out: cefepime MIC with 16 μg/mL of BPEI600

CCC[C@@H]1C[C@@H](C(=O)N[C@@H]([C@H]2O[C@H](SC)[C@H](O)[C@@H](O)[C@H]2O)[C@H](C)Cl)N(C)C1 [Clindamycn]
MIC [1]: > 4 µg/mL
MIC [2]: > 4 µg/mL

CCCCCCCCCC(=O)N[C@@H](Cc1c[nH]c2ccccc12)C(=O)N[C@H](CC(N)=O)C(=O)N[C@@H](CC(=O)O)C(=O)N[C@@H]1C(=O)NCC(=O)N[C@@H](CCCN)C(=O)N[C@@H](CC(=O)O)C(=O)N[C@H](C)C(=O)N[C@@H](CC(=O)O)C(=O)NCC(=O)N[C@H](CO)C(=O)N[C@@H]([C@H](C)CC(=O)O)C(=O)N[C@@H](CC(=O)c2ccccc2N)C(=O)O[C@@H]1C [Daptomycin]
MIC [1]: ≤ 0.5 µg/mL
MIC [2]: ≤ 0.5 µg/mL

CC[C@H]1OC(=O)[C@H](C)[C@@H](O[C@H]2C[C@@](C)(OC)[C@@H](O)[C@H](C)O2)[C@H](C)[C@@H](O[C@@H]2O[C@H](C)C[C@H](N(C)C)[C@H]2O)[C@](C)(O)C[C@@H](C)C(=O)[C@H](C)[C@@H](O)[C@]1(C)O [Erythromycin]
MIC [1]: > 4 µg/mL
MIC [3]: 256 µg/mL
MIC ([3]; read-out: erythromycin MIC in the presence of 16 μg/mL of BPEI600): 64 µg/mL
factor of reduction of erythromycin MIC by BPEI600 ([3]; data not shown): 4
interaction with BPEI600 [3]: exhibited synergy
MIC [2]: > 4 µg/mL

CN(C)[C@@H]1C(O)=C(C(N)=O)C(=O)[C@@]2(O)C(O)=C3C(=O)c4c(O)cccc4[C@@](C)(O)[C@H]3C[C@@H]12 [Tetracycline]
MIC [1]: ≤ 4 µg/mL
MIC [2]: ≤ 4 µg/mL

CC1(C)S[C@@H]2[C@H](NC(=O)[C@H](N)c3ccc(O)cc3)C(=O)N2[C@H]1C(=O)O [amoxicillin]
MIC with 4 μg/ml (6.75 μM) 600-Da BPEI (MRSA USA 300 ATCC 1717): 1 µg/mL
MIC (MRSA USA 300 ATCC 1717): 4 µg/mL

CC1(C)S[C@@H]2[C@H](NC(=O)[C@H](N)c3ccccc3)C(=O)N2[C@H]1C(=O)O [ampicillin]
MICCP (MRSA OU6 biofilms; MRSA OU6, challenge plate, agent alone): 256 µg/mL
Ampicillin MBEC + 64 μg/mL BPEI (MRSA OU6 biofilms; MRSA OU6 biofilm): 64 µg/mL
MBEC (MRSA OU6 biofilms; MRSA OU6 biofilm, agent alone): >256 µg/mL
MICCP (MRSA 43300 biofilms; MRSA 43300, challenge plate, agent alone): 128 µg/mL
Ampicillin MBEC + 64 μg/mL BPEI (MRSA 43300 biofilms; MRSA 43300 biofilm): 2 µg/mL
MBEC (MRSA 43300 biofilms; MRSA 43300 biofilm, agent alone): >256 µg/mL
MICCP (MRSA OU11 biofilms; MRSA OU11, challenge plate, agent alone): 128 µg/mL
Ampicillin MBEC + 64 μg/mL BPEI (MRSA OU11 biofilms; MRSA OU11 biofilm): 32 µg/mL
MBEC (MRSA OU11 biofilms; MRSA OU11 biofilm, agent alone): >256 µg/mL

CO/N=C(\C(=O)N[C@@H]1C(=O)N2C(C(=O)[O-])=C(C[N+]3(C)CCCC3)CS[C@H]12)c1csc(N)n1 [cefepime]
MIC (PA OU15; [6]): 0.5 µg/mL
MIC (PA OU15; agent alone, read-out: MIC): 32 µg/mL
MIC (PA OU22; [6]): 8 µg/mL
MIC (PA OU22; agent alone, read-out: MIC): 128 µg/mL
MIC (PA OU19; [6]): 8 µg/mL
MIC (PA OU19; agent alone, read-out: MIC): 64 µg/mL
MIC with 4 μg/ml (6.75 μM) 600-Da BPEI (MRSA USA 300 ATCC 1717): 1 µg/mL
MIC (MRSA USA 300 ATCC 1717): 4 µg/mL

CO/N=C(\C(=O)N[C@@H]1C(=O)N2C(C(=O)O)=CCS[C@H]12)c1csc(N)n1 [ceftizoxime]
MIC, antibiotic + 32 μg/ml (20 μM) PEG1000BPEI600 (MRSA USA 300 ATCC 1717): 8 µg/mL
MIC, antibiotic + 64 μg/ml (40 μM) PEG1000BPEI600 (MRSA USA 300 ATCC 1717): 0.5 µg/mL
MIC (MRSA USA 300 ATCC 1717): 128 µg/mL

CC1=C(C(=O)O)N2C(=O)[C@@H](NC(=O)[C@H](N)c3ccccc3)[C@H]2SC1 [cephalexin]
MIC with 4 μg/ml (6.75 μM) 600-Da BPEI (MRSA USA 300 ATCC 1717): 0.5 µg/mL
MIC (MRSA USA 300 ATCC 1717): 2 µg/mL

C[C@@H](O)[C@H]1C(=O)N2C(C(=O)O)=C(SCCN=CN)C[C@H]12 [imipenem]
MIC with 4 μg/ml (6.75 μM) 600-Da BPEI (MRSA USA 300 ATCC 1717): 0.03 µg/mL
MIC (MRSA USA 300 ATCC 1717): 4 µg/mL

CC(=O)NC[C@H]1CN(c2ccc(N3CCOCC3)c(F)c2)C(=O)O1 [linezolid]
MIC [1]: 2 µg/mL (≈ 5.93 µM)
MIC, antibiotic + 2 μg/ml (3.375 μM) 600-Da BPEI [4]: 0.25 µg/mL
MIC, antibiotic + 4 μg/ml (6.75 μM) 600-Da BPEI [4]: 0.25 µg/mL
MIC of antibiotic only [4]: 0.25 µg/mL
MIC with 4 μg/ml (6.75 μM) 600-Da BPEI (MRSA USA 300 ATCC 1717): 0.5 µg/mL
MIC (MRSA USA 300 ATCC 1717): 0.5 µg/mL
MIC, antibiotic + 2 μg/ml (3.375 μM) 600-Da BPEI [5]: 0.5 µg/mL
MIC, antibiotic + 4 μg/ml (6.75 μM) 600-Da BPEI [5]: 0.25 µg/mL
MIC of antibiotic only [5]: 1 µg/mL
MIC [2]: 2 µg/mL (≈ 5.93 µM)

C[C@@H](O)[C@H]1C(=O)N2C(C(=O)O)=C(S[C@@H]3CN[C@H](C(=O)N(C)C)C3)[C@H](C)[C@H]12 [meropenem]
MIC ([3]; isolates OU15, OU19, OU22, agent alone (data not shown), read-out: MIC): 16 to 64 µg/mL
interaction with BPEI600 [3]: no synergy (no synergy (FICI≥1))

CN[C@H](CC(C)C)C(=O)N[C@H]1C(=O)N[C@@H](CC(N)=O)C(=O)N[C@H]2C(=O)N[C@H]3C(=O)N[C@H](C(=O)N[C@H](C(=O)O)c4cc(O)cc(O)c4-c4cc3ccc4O)[C@H](O)c3ccc(c(Cl)c3)Oc3cc2cc(c3O[C@@H]2O[C@H](CO)[C@@H](O)[C@H](O)[C@H]2O[C@H]2C[C@](C)(N)[C@H](O)[C@H](C)O2)Oc2ccc(cc2Cl)[C@H]1O [vancomycin]
MIC [1]: 1 µg/mL (≈ 0.69 µM)
MIC, antibiotic + 2 μg/ml (3.375 μM) 600-Da BPEI [4]: 1 µg/mL
MIC, antibiotic + 4 μg/ml (6.75 μM) 600-Da BPEI [4]: 1 µg/mL
MIC of antibiotic only [4]: 1 µg/mL
MIC, antibiotic + 2 μg/ml (3.375 μM) 600-Da BPEI [5]: 2 µg/mL
MIC, antibiotic + 4 μg/ml (6.75 μM) 600-Da BPEI [5]: 0.5 µg/mL
MIC of antibiotic only [5]: 2 µg/mL
MIC [2]: 2 µg/mL (≈ 1.38 µM)

Gentamicin
MIC [1]: ≤ 4 µg/mL
MIC [2]: ≤ 4 µg/mL
